Measured values taken from patent publication US11524944B2, “2-phenylpyrimidine-4-carboxamides as AHR inhibitors” (Bayer Aktiengesellschaft, priority 2017, dated 2022).

Assays:
Human AhR = biological target: T1, Human AhR (Homo sapiens, UniProt P35869); assay: Transactivation assay in human cell line (in vitro assay 1): antagonism; format: cell-based; conditions: U87 glioblastoma cells, AHR inducible firefly luciferase reporter (DRE), 150 μM kynurenic acid, 20 hours
T1 construct: host or cells: U87 glioblastoma cells, stably transfected with a DRE firefly luciferase reporter and a constitutive renilla reporter
T1 sequence (P35869 11-848): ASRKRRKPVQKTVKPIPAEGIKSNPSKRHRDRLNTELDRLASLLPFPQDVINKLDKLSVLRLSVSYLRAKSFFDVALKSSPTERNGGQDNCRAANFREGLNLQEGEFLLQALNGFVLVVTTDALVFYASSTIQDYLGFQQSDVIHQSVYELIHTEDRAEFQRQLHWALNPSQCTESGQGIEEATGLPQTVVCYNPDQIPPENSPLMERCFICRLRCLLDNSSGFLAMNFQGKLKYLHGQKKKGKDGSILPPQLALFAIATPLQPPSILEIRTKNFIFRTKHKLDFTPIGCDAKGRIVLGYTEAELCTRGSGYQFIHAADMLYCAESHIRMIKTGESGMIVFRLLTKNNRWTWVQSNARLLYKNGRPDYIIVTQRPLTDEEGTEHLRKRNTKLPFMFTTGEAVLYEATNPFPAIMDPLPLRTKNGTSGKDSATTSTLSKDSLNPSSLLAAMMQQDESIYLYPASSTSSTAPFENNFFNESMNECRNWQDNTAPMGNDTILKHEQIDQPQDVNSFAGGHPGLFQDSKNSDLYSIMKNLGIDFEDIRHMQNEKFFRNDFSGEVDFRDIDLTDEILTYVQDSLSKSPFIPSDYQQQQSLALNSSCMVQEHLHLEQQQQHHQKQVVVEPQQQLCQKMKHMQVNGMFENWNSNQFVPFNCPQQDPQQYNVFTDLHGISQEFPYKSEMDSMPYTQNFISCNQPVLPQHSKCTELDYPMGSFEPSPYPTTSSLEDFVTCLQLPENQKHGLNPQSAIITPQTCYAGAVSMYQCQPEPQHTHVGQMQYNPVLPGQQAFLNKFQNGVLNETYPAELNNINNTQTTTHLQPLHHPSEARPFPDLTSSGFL
Description: (§1) Examples were tested in selected biological assays one or more times. When tested more than once, data are reported as either average values or as median values, wherein • the average value, also referred to as the arithmetic mean value, represents the sum of the values obtained divided by the number of times tested, and • the median value represents the middle number of the group of values when ranked in ascending or descending order. If the number of values in the data set is odd, the median is the middle value. If the number of values in the data set is even, the median is the arithmetic mean of the two middle values.
Transactivation Assay in Human Cell Line (In Vitro Assay 1)
(§2) Transactivation assay was carried out in U87 glioblastoma cells (ATCC) endogenously expressing AHR. In addition the cells were stably transfected with an AHR inducible firefly luciferase reporter gene construct that carried AHR-binding sites (DRE) in its promoter and a renilla reporter gene construct with constitutively active promoter. Kynurenic acid is an endogenous AHR activating ligand and was used to prestimulate test cells prior to testing the antagonistic properties of compounds.
In Vitro Assay 1: Antagonism in Human Cell Line
Firefly luciferase and Renilla activity was determined by the DualGlo Luciferase Assay System (Promega, #2920). Renilla activity was used to assess toxic effects of compounds.

Mouse AhR = biological target: T2, Mouse AhR (Mus musculus, UniProt P30561); assay: Transactivation assay in mouse cell line (in vitro assay 2): antagonism; format: cell-based; conditions: Hepa 1c1c7 cells, AHR inducible firefly luciferase reporter (DRE), 200 μM kynurenic acid, 20 hours
T2 sequence (P30561 1-848 P471L/N533S/M589L): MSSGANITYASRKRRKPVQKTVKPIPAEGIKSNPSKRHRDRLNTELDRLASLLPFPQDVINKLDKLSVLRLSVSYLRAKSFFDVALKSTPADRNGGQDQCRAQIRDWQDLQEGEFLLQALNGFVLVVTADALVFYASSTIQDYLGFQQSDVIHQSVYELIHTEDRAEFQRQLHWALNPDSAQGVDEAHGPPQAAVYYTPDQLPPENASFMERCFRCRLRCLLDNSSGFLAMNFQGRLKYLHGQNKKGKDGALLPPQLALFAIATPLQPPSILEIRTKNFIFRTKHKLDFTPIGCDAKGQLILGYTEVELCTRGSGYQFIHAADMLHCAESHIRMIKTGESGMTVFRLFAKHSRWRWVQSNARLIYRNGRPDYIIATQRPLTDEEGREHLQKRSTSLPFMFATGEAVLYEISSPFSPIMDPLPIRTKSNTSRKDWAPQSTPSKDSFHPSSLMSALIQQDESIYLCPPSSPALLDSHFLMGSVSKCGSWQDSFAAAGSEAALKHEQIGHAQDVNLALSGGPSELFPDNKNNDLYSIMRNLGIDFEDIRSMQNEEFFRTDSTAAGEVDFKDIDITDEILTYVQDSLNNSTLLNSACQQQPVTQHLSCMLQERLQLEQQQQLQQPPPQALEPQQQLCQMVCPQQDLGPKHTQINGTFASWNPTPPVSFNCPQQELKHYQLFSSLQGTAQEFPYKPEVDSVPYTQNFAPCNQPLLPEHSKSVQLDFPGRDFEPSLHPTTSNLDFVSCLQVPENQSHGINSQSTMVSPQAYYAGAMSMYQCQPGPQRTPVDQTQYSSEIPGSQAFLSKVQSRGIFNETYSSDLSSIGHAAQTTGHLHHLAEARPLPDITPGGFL
Description: as §1
Transactivation Assay in Mouse Cell Line (In Vitro Assay 2)
as §2, with “Hepa 1c1c7” for “U87 glioblastoma”, “(ATCC #CRL-2026)” for “(ATCC)”, “its” for “its promoter and a renilla reporter gene construct with constitutively active”
In Vitro Assay 2: Antagonism in Mouse Cell Line
Firefly luciferase activity was determined by the SteadyGlo Luciferase Assay System (Promega, #E2550).

| Compound | IC50 (Human AhR) [nM] | IC50 (Mouse AhR) [nM] |
| --- | --- | --- |
| Cc1cccc(-c2nc(C(=O)N[C@@H](C)CO)cc(-c3ccc(Cl)cc3)n2)c1 [Example 64, 6-(4-chlorophenyl)-N-[(2S)-1-hydroxypropan-2-yl]-2-(3-methylphenyl)pyrimidine-4-carboxamide] | 7.2 | 52.6 |
| C[C@@H](CO)NC(=O)c1cc(-c2ccc(Cl)cc2)nc(-c2cccc(F)c2)n1 [Example 4, 6-(4-Chlorophenyl)-2-(3-fluorophenyl)-N-[(2S)-1-hydroxypropan-2-yl]pyrimidine-4-carboxamide] | 1.69 | 3.38 |
| Cc1cc(-c2nc(C(=O)N[C@@H](C)CO)cc(-c3ccc(OC(F)(F)F)cc3)n2)ccc1F [Example 32, 2-(4-fluoro-3-methylphenyl)-N-[(2S)-1-hydroxypropan-2-yl]-6-[4-(trifluoromethoxy)phenyl]pyrimidine-4-carboxamide] | 167 | 384 |
| COc1cc(F)cc(-c2nc(C(=O)N[C@@H](C)CO)cc(-c3ccc(Cl)cc3)n2)c1 [Example 76, 6-(4-chlorophenyl)-2-(3-fluoro-5-methoxyphenyl)-N-[(2S)-1-hydroxypropan-2-yl]pyrimidine-4-carboxamide] | 36.8 | 81.5 |
| CC(C)(O)CNC(=O)c1cc(-c2ccc(Cl)cc2)nc(-c2cc(Cl)cc(Cl)c2)n1 [Example 51, 6-(4-chlorophenyl)-2-(3,5-dichlorophenyl)-N-(2-hydroxy-2-methylpropyl)pyrimidine-4-carboxamide] | 101 | 3090 |
| Cc1cccc(-c2nc(C(=O)NCC(C)(C)O)cc(-c3ccc(Cl)cc3)n2)c1 [Example 48, 6-(4-chlorophenyl)-N-(2-hydroxy-2-methylpropyl)-2-(3-methylphenyl)pyrimidine-4-carboxamide] | – | 26 |
| C[C@@H](CO)NC(=O)c1cc(-c2ccc(OC(F)(F)F)cc2)nc(-c2cccc(Cl)c2)n1 [Example 37, 2-(3-chlorophenyl)-N-[(2S)-1-hydroxypropan-2-yl]-6-[4-(trifluoromethoxy)phenyl]pyrimidine-4-carboxamide] | – | 8.49 |
| Cc1cc(-c2nc(C(=O)NCC(C)(C)O)cc(-c3ccc(OC(F)(F)F)cc3)n2)ccc1F [Example 17, 2-(4-fluoro-3-methylphenyl)-N-(2-hydroxy-2-methylpropyl)-6-[4-(trifluoromethoxy)phenyl]pyrimidine-4-carboxamide] | – | 637 |
| Cc1cc(-c2nc(C(=O)NCC(C)(C)O)cc(-c3ccc(Cl)cc3)n2)ccc1F [Example 49, 6-(4-chlorophenyl)-2-(4-fluoro-3-methylphenyl)-N-(2-hydroxy-2-methylpropyl)pyrimidine-4-carboxamide] | – | 406 |
| Cc1cccc(-c2nc(C(=O)NCC(C)(C)O)cc(-c3ccc(OC(F)(F)F)cc3)n2)c1 [Example 16, N-(2-hydroxy-2-methylpropyl)-2-(3-methylphenyl)-6-[4-(trifluoromethoxy)phenyl]pyrimidine-4-carboxamide] | – | 12.9 |
| CC(C)(O)CNC(=O)c1cc(-c2ccc(OC(F)(F)F)cc2)nc(-c2ccc(Cl)c(Cl)c2)n1 [Example 22, 2-(3,4-dichlorophenyl)-N-(2-hydroxy-2-methylpropyl)-6-[4-(trifluoromethoxy)phenyl]pyrimidine-4-carboxamide] | – | 278 |
| CC(C)(O)CNC(=O)c1cc(-c2ccc(Cl)cc2)nc(-c2ccc(F)c(Cl)c2)n1 [Example 50, 2-(3-chloro-4-fluorophenyl)-6-(4-chlorophenyl)-N-(2-hydroxy-2-methylpropyl)pyrimidine-4-carboxamide] | – | 53.8 |

Results, then the compound that gave them:

| IC50 (Human AhR) [nM] | IC50 (Mouse AhR) [nM] | Compound |
| --- | --- | --- |
| 5.88 | 13.3 | C[C@H](CO)NC(=O)c1cc(-c2ccc(Cl)cc2)nc(-c2cccc(F)c2)n1 [Example 2, 6-(4-Chlorophenyl)-2-(3-fluorophenyl)-N-[(2R)-1-hydroxypropan-2-yl]pyrimidine-4-carboxamide] |
| 5.3 | 2.37 | CC(NC(=O)c1cc(-c2ccc(OC(F)(F)F)cc2)nc(-c2cccc(F)c2)n1)C(O)CO (centres unmarked) [Example 79, N-(3,4-dihydroxybutan-2-yl)-2-(3-fluorophenyl)-6-[4-(trifluoromethoxy)phenyl]pyrimidine-4-carboxamide] |
| 41.1 | 11.5 | C[C@@H](CO)NC(=O)c1cc(-c2cccc(F)c2)nc(-c2ccc(OC(F)(F)F)cc2)n1 [Example 11, 6-(3-Fluorophenyl)-N-[(2S)-1-hydroxypropan-2-yl]-2-[4-(trifluoromethoxy)phenyl]pyrimidine-4-carboxamide] |
| – | 17 | C[C@@H](CO)NC(=O)c1cc(-c2ccc(Cl)cc2)nc(-c2cc(F)cc(F)c2)n1 [Example 74, 6-(4-chlorophenyl)-2-(3,5-difluorophenyl)-N-[(2S)-1-hydroxypropan-2-yl]pyrimidine-4-carboxamide] |
| – | 13.6 | C[C@@H](CO)NC(=O)c1cc(-c2ccc(Cl)cc2)nc(-c2cccc(Cl)c2)n1 [Example 71, 2-(3-chlorophenyl)-6-(4-chlorophenyl)-N-[(2S)-1-hydroxypropan-2-yl]pyrimidine-4-carboxamide] |
| – | 28.3 | CC(C)(O)CNC(=O)c1cc(-c2ccc(OC(F)(F)F)cc2)nc(-c2cc(F)cc(F)c2)n1 [Example 24, 2-(3,5-difluorophenyl)-N-(2-hydroxy-2-methylpropyl)-6-[4-(trifluoromethoxy)phenyl]pyrimidine-4-carboxamide] |
| – | 12.8 | O=C(NC(CO)C1CCC1)c1cc(-c2ccc(OC(F)(F)F)cc2)nc(-c2cccc(F)c2)n1 (centres unmarked) [Example 85, N-(1-cyclobutyl-2-hydroxyethyl)-2-(3-fluorophenyl)-6-[4-(trifluoromethoxy)phenyl]pyrimidine-4-carboxamide] |
| – | 12.3 | C[C@@H](CO)NC(=O)c1cc(-c2ccc(OC(F)(F)F)cc2)nc(-c2cc(F)cc(F)c2)n1 [Example 39, 2-(3,5-difluorophenyl)-N-[(2S)-1-hydroxypropan-2-yl]-6-[4-(trifluoromethoxy)phenyl]pyrimidine-4-carboxamide] |
| – | 908 | Cc1cc(F)cc(-c2nc(C(=O)NCC(C)(C)O)cc(-c3ccc(Cl)cc3)n2)c1 [Example 60, 6-(4-chlorophenyl)-2-(3-fluoro-5-methylphenyl)-N-(2-hydroxy-2-methylpropyl)pyrimidine-4-carboxamide] |
